The values that follow come from ChEMBL document CHEMBL1128982, “3-Hydroxy-quinolin-2-ones: Inhibitors of [3H]-glycine binding to the site associated with the NMDA receptor” (Bioorg Med Chem Lett, 1996).

SMILES strings stand for the structures.

A word on the inhibition: it is the drop in the measured response relative to a control, in per cent. A word on the IC50: it is the concentration that gives 50% inhibition.

The target of assay [1] is T1, Glutamate NMDA receptor (Rattus norvegicus) (UniProt P35439+Q00959+Q00960+Q00961+Q62645+Q8VHN2+Q9R1M7). Kind of assay: Displacement of [3H]glycine from NMDA receptor of rat cortical membranes. It is filed as cell membranes. Further details: concentration or dose not given beside the values. The conditions noted are these: Membrane, concentration not given here. For orientation: Displacement assays read how much labelled ligand stays bound in the presence of the test substance.

A further assay addresses Glutamate NMDA receptor. Kind of assay: Displacement of [3H]-glycine from NMDA receptor of rat cortical membranes. The format is cell membranes, Membrane.
Assay [2] addresses Glutamate receptor ionotropic, AMPA (Rattus norvegicus) (UniProt P19491+P19492+P19493+P19490). As to the kind of experiment: Displacement of [3H]AMPA from AMPA receptor of rat cortical membranes. The format is cell membranes. Further details: concentration or dose not given beside the values. The conditions noted are these: Membrane, concentration not given here.
The target of assay [3] is T1, Glutamate NMDA receptor (Rattus norvegicus). Kind of assay: Compound was evaluated for its ability to displace [3H]-glycine from rat cortical membranes at concentration 10 uM for NMDA receptor.

In turn, `O=C(O)/C=C/c1c(O)c(O)nc2ccccc12` displayed an inhibition in assay [1] of 43%.

`Oc1cc2c(Cl)cc(Cl)cc2nc1O`: in assay [1], the inhibition is 29%.

As for `CCOC(=O)C(=O)c1c(O)c(O)nc2ccccc12`, at Glutamate NMDA receptor, the IC50 was 12000 nM.

For `Oc1nc2cc(Cl)cc(Cl)c2c(Br)c1O`, the inhibition in assay [2] turned out to be 41%. This compound also gave an IC50 on Glutamate NMDA receptor of 2800 nM.

In assay [1], `CCOC(=O)c1c(O)c(O)nc2ccccc12` came in with an inhibition of 50%.

Consider `CCOC(=O)c1c(O)c(O)nc2ccc(Cl)c(Cl)c12`, for which the inhibition in assay [1] was found to be 38%.

In assay [1], `O=c1[nH]c2ccccc2cc1O` showed an inhibition of 29%.

In assay [1], `Oc1nc2ccccc2c(Br)c1O` registered an inhibition of 59%.

Consider `COC(=O)C(=O)c1c(O)c(O)nc2ccccc12`, for which the inhibition in assay [2] was found to be 2.6%. The IC50 at Glutamate NMDA receptor came to 3000 nM.

Take `COC(=O)C(=O)c1c(O)c(O)nc2cc(Cl)cc(Cl)c12`: the inhibition in assay [2] came to 28%. For the same compound, the 50% inhibitory concentration (IC50) on Glutamate NMDA receptor was 150 nM.

Take `Oc1cc2c(Cl)c(Cl)ccc2nc1O`: in assay [1], the inhibition worked out at 0%.

On Glutamate NMDA receptor, `Oc1nc2ccccc2c(Cl)c1O` registered a concentration for half-maximal inhibition (IC50) of 1400 nM.

`O=C(NCc1ccccc1)c1c(O)c(O)nc2ccccc12` showed an inhibition in assay [1] of 40%.

Consider `COc1ccc(NC(=O)c2c(O)c(O)nc3ccccc23)cc1OC`, for which the inhibition in assay [1] is 0%.

`Oc1nc2ccc(Cl)c(Cl)c2c(Br)c1O` yielded an inhibition in assay [1] of 23%.

For the compound `CCOC(=O)C(=O)c1c(O)c(O)nc2cc(Cl)cc(Cl)c12`, the inhibition in assay [2] was found to be 56%. The half-maximal inhibitory concentration (IC50) at Glutamate NMDA receptor turned out to be 29 nM.

Consider `CCOC(=O)/C=C/c1c(O)c(O)nc2ccccc12`, for which the inhibition in assay [1] was 11%.

Compound `CCOC(=O)c1c(O)c(O)nc2cc(Cl)cc(Cl)c12` yielded a concentration for half-maximal inhibition (IC50) at Glutamate NMDA receptor of 62 nM.

`O=C(O)CCc1c(O)c(O)nc2ccccc12` came in with an inhibition in assay [1] of 25%.

Take `O=C(Nc1ccccc1)C(=O)c1c(O)c(O)nc2cc(Cl)cc(Cl)c12`: in assay [2], the inhibition was 40%. For the same compound, the IC50 at Glutamate NMDA receptor is 760 nM.

On to `O=C(O)C(=O)c1c(O)c(O)nc2cc(Cl)cc(Cl)c12`, for which the inhibition in assay [2] was determined as 63%. The compound further registered an IC50 on Glutamate NMDA receptor of 520 nM.

In assay [1], `CCOC(=O)c1c(O)c(O)nc2cc(Cl)c(Cl)cc12` returned an inhibition of 43%.

Regarding `CCOC(=O)c1c(OC)c(O)nc2cc(Cl)cc(Cl)c12`, the inhibition in assay [3] turned out to be 5%.

In assay [1], `O=C(O)c1c(O)c(O)nc2ccccc12` showed an inhibition of 60%.

Consider `CNC(=O)C(=O)c1c(O)c(O)nc2cc(Cl)cc(Cl)c12`, for which, in assay [2], the inhibition was 15%. Further, on Glutamate NMDA receptor, the half-maximal inhibitory concentration (IC50) is 3800 nM.

`Oc1nc2ccc(Cl)c(Cl)c2c(Cl)c1O` gave an inhibition in assay [1] of 20%.

In turn, `CCOC(=O)c1c(OC)c(O)nc2ccccc12` yielded an inhibition in assay [3] of 0%.

In assay [2], `Oc1nc2cc(Cl)cc(Cl)c2c(Cl)c1O` returned an inhibition of 48%. The same compound yielded an IC50 on Glutamate NMDA receptor of 4500 nM.

Compound `CCOC(=O)c1c(OC)c(O)nc2cc(Cl)c(Cl)cc12` gave an inhibition in assay [3] of 0%.

`O=C(O)C(=O)c1c(O)c(O)nc2ccccc12` registered an inhibition in assay [2] of 31.9%. The compound further displayed an IC50 at Glutamate NMDA receptor of 1800 nM.
